What all share (assay type): functional
Conditions in all cases: read-out: IZ

In one experiment the test system is Bacillus subtilis. In words: Antimicrobial activity against Bacillus subtilis at 5 ug/ml by standard disk assay.
The next experiment has as its system Staphylococcus aureus. In words: Antimicrobial activity against Staphylococcus aureus at 5 ug/ml by standard disk assay.
The next experiment concerns Candida albicans. In words: Antimicrobial activity against Candida albicans at 10 ug/ml by standard disk assay.

Where a name gives a salt, the structure may show the parent alone.

For `CON(C)CCCCCCCCCC/C=C\C#CCCCCc1ccc[n+](C)c1` [XESTAMINE F IODIDE SALT], the zone of inhibition at 5 µg/mL with Bacillus subtilis was determined as 8 mm; in the experiment on Staphylococcus aureus, 9 mm. Also, the zone of inhibition at 10 µg/mL with Candida albicans worked out at 10 mm.

Source of the values: ChEMBL document CHEMBL1158978, “Antimicrobial N-methylpyridinium salts related to the xestamines from the Caribbean sponge Calyx podatypa” (1991).
